This note sets out measurements from ChEMBL document CHEMBL1131946, “Synthesis and evaluation of backbone/amide-modified analogs of leualacin” (Bioorg Med Chem Lett, 1999).

As usually defined, the IC50 is the concentration that gives 50% inhibition.

For assay [1], the species on record is Rattus norvegicus. The assay can be described thus: vasodilatory effect for [Ca2+] antagonism in aortic arch isolated from WKY rats at a concentration of 100 uM. Format: functional, Pharyngeal arch artery.
The nature of assay [2]: Inhibitory effect against arachidonic acid-induced platelet aggregation at a concentration of 100 uM. Format: functional.
A short description of assay [3]: Inhibitory effect against collagen-induced platelet aggregation at a concentration of 100 ug/mL. The class given is functional.
A short description of assay [4]: Inhibitory effect against U-46,619-induced platelet aggregation at a concentration of 1 uM. Format: functional.
Assay [5] is filed under the species Rattus norvegicus. The assay is described as follows: vasodilatory effect for [Ca2+] antagonism in aortic arch isolated from WKY rats at a concentration of 1 uM. The class given is functional, Pharyngeal arch artery.
For assay [6], the species on record is Rattus norvegicus. The assay can be described thus: vasodilatory effect for [Ca2+] antagonism in aortic arch isolated from WKY rats at a concentration of 0.01 uM. The class given is functional, Pharyngeal arch artery.
The species entered for assay [7] is Rattus norvegicus. The assay can be described thus: vasodilatory effect for [Ca2+] antagonism in aortic arch isolated from WKY rats at a concentration of 10 uM. The class given is functional, Pharyngeal arch artery.
Assay [8] is filed under the species Rattus norvegicus. The assay can be described thus: vasodilatory effect for [Ca2+] antagonism in aortic arch isolated from WKY rats at a concentration of 0.1 uM. Format: functional, Pharyngeal arch artery.
A short description of assay [9]: Inhibitory effect against TXB2 formation in response to collagen-induced platelet aggregation at a concentration of 100 ug/mL. Format: functional.
Assay [10] can be described thus: Inhibitory effect against TXB2 formation in response to arachidonic acid-induced platelet aggregation at a concentration of 100 uM. The class given is functional.

As to `CC(C)C[C@@H]1NC(=O)[C@@H](CC(C)C)OC(=O)CCN(C)C(=O)[C@H](Cc2ccccc2)N(C)C(=O)[C@H](CC(C)C)OC1=O`, the Vasodilatory rate worked out at 78% in [1]; 25.1% in assay [5]; 11.5% in assay [6]; 80.8% in assay [7]; 32.5% in assay [8]. In addition, the IC50 in assay [2] was greater than 200 µM; in [3], greater than 150 µM; in assay [4], greater than 200 µM.
As to `CC(C)C[C@@H]1NC(=O)[C@@H](CC(C)C)NC(=O)CCNC(=O)[C@H](Cc2ccccc2)N(C)C(=O)[C@H](CC(C)C)OC1=O`, the results for the “Amount of TXB2 formation” value in assay [9] and in assay [10] were 25.6 ng/mL and 30.7 ng/mL, respectively. In addition, the IC50 worked out at 30 µM in assay [2], 10 µM in [3] and 40 µM in assay [4]. Moreover, the Vasodilatory rate was 100% in assay [5], 29.3% in assay [6] and 35% in assay [8].
On to `CC(C)C[C@@H]1NC(=O)[C@@H](CC(C)C)NC(=O)CCN(C)C(=O)[C@H](Cc2ccccc2)N(C)C(=O)[C@H](CC(C)C)OC1=O`, for which the IC50 in assay [2] is greater than 200 µM; in assay [3], greater than 150 µM; in assay [4] it was greater than 200 µM.
With `CC(C)C[C@@H]1NC(=O)[C@@H](CC(C)C)OC(=O)CCNC(=O)[C@H](Cc2ccccc2)N(C)C(=O)[C@H](CC(C)C)OC1=O`, the “Amount of TXB2 formation” value in assay [9] came out at 39.4 ng/mL; in [10], 55.4 ng/mL. Further, the Vasodilatory rate in assay [1] is recorded as 66.5%; in assay [5], 26.8%; in assay [7], 64.4%. The IC50 came to 150 µM in assay [2], 50 µM in assay [3] and 150 µM in assay [4].
